Usually melting point stands for the temperature of the solid-liquid transition.

Values after ≈ are worked out from the molar mass of the structure shown. Read-outs that look alike come from different tables or passages of the source.

This is an account of results in US9079870B2, “Thiol mediated/activated prodrugs of sulfur dioxide (SO2) having anti-bacterial activity” (priority 2012, dated 2015).

The subject of one data set is S. aureus ATCC 29213. As to the kind of experiment: Antibacterial activity (MIC) against S. aureus. In kind it is cell-based. From the text: (§1) The antibacterial activity of thiol mediated/activated prodrugs of SO2 i.e. 2,4-dinitrophenylsulfonamide related compounds against the gram positive pathogenic bacteria selected from the group S. aureus, E. feacalis is given herein below Table 2a.

The subject of a further data set is E. feacalis ATCC 29212. As to the kind of experiment: Antibacterial activity (MIC) against E. feacalis. Type of data set: cell-based.
From the text: as §1

Data set [1] deals with Mycobacterium tuberculosis H37Rv strain. As to the kind of experiment: Antimycobacterial activity assay (MIC, 7H11 agar). The note with it: Mtb H37Rv. In kind it is cell-based.
Data set [2] in a line: Cysteine-activated sulfur dioxide release, ion chromatography analysis of sulfite. To be noted: for SO2 yield, 5 min: 5 min after treatment of compound (100 1M) with 10 equiv of cysteine in pH 7.4 phosphate buffer; for SO2 yield in 30 min (%): 30 min after commencement of the reaction with cysteine (10 equiv); for SO2 yield in 30 min (%) / Max SO2 yield: pH 7.4; for K (min−1), rate of sulfite release: compound (100 μM), cysteine (10 equiv), pH 7.4 phosphate buffer (20 mM); for Max SO2 yield: sum of sulfite and sulfate, compound 100 μM, cysteine 10 equiv; for % SO2 (30 min): 30 min after commencement of the reaction with thiol, per mole of compound.

A short description of data set [3]: Pararosaniline-based colorimetric assay for sulfur dioxide. Type of data set: physicochemical. To be noted: detected with pararosaniline-based colorimetric assay; 10 equiv cysteine, pH 7.4.
For data set [4] the following is noted: Table 4; values are for the amine without a DNs group; cited from earlier work.
The conditions of data set [5]: buffer, 100 µM, pH 7.4.
Where [6] appears, read: Staphylococcus aureus, ATCC29213; read-out: MIC (μg/mL) S. aureus ATCC 29213.
Where [7] appears, read: Enterococcus faecalis, ATCC29212; read-out: MIC (μg/mL) E. feacalis ATCC 29212.
Where [8] appears, read: Mycobacterium tuberculosis, H37RV, Table 2b.
[9] abbreviates: Mycobacterium tuberculosis, H37RV, Table 2b, inhibit 99% of bacterial growth.
Setting [10] is: 30 min after treatment of compound (100 1M) with 10 equiv of cysteine in pH 7.4 phosphate buffer.
Where [11] appears, read: Mycobacterium tuberculosis, H37RV, Table 3.
Setting [12] is: Mycobacterium tuberculosis, H37RV, Table 3, inhibit 99% of bacterial growth.
[13] abbreviates: Table 3, 30 min after treatment of compound (100 μM) with 10 equiv of cysteine in pH 7.4 phosphate buffer.
Setting [14] is: Mycobacterium tuberculosis, H37RV, 672 h, Table 3, inhibit 99% of bacterial growth, read-out: MIC.
Setting [15] is: Staphylococcus aureus, ATCC29213, read-out: MIC (μg/mL) S. aureus ATCC 29213.
[16] abbreviates: Enterococcus faecalis, ATCC29212, read-out: MIC (μg/mL) E. feacalis ATCC 29212.

Take `COc1ccc(CNS(=O)(=O)c2ccc([N+](=O)[O-])cc2[N+](=O)[O-])cc1` [Compound 2, N-(4-methoxybenzyl)2,4-dinitrophenylsulfonamide]: the MIC in the data set with S. aureus ATCC 29213 (setting [6]) is over 16 µg/mL; in the data set on E. feacalis ATCC 29212 (setting [7]), over 16 µg/mL; in data set [1] (setting [8]), 0.68 µM; in data set [1] (setting [9]) it was 0.25 µg/mL. For the same compound, the “SO2 yield, 5 min” value in data set [2] came out at 74 µM. In data set [2] (setting [10]), the “SO2 yield, 30 min” value was determined as 84 µM.

With `O=[N+]([O-])c1ccc(S(=O)(=O)Nc2ccccc2)c([N+](=O)[O-])c1` [Compound 6, N-phenyl, 2,4-dinitrophenylsulfonamide], the MIC in data set [1] (Mycobacterium tuberculosis, H37RV, 672 h, Table 3, inhibit 99% of bacterial growth) was at most 25 µg/mL; in data set [1] (setting [8]), 9.69 µM; in data set [1] (setting [9]), 3.13 µg/mL; in data set [1] (setting [11]) it was 9.7 µM; in data set [1] (setting [12]) it was 3.13 µg/mL. Also, the SO2 source entry in data set [3] was “yes”. Further, the “SO2 yield, 5 min” value in data set [2] came to 37 µM. Also, the “SO2 yield in 30 min (%)” value in data set [2] was found to be 55%. In addition, the “SO2 yield, 30 min” value in data set [2] (setting [10]) and in data set [2] (setting [13]) was 55 µM throughout. Besides, in data set [2], the “K (min−1), rate of sulfite release” value amounted to 0.0273 min⁻¹. For the same compound, in data set [2], the “Max SO2 yield” value stood at 94 µM. Also, the pKaH in data set [4] was 4.64. In addition, in data set [5], the “t1/2 (min) of SO2 generation” value was found to be 25 min.

On to `COc1ccccc1NS(=O)(=O)c1ccc([N+](=O)[O-])cc1[N+](=O)[O-]` [Compound 8, N-(2-methoxyphenyl) 2,4-dinitrophenylsulfonamide], for which the MIC with S. aureus ATCC 29213 (setting [6]) turned out to be 8 µg/mL (≈ 22.6 µM); with E. feacalis ATCC 29212 (setting [7]) it was 16 µg/mL (≈ 45.3 µM); in data set [1] (setting [8]) it was 8.85 µM; in data set [1] (setting [9]) it was 3.13 µg/mL. In data set [2], the “SO2 yield, 5 min” value is 57 µM. In addition, the “SO2 yield, 30 min” value in data set [2] (setting [10]) is 86 µM.

On to `O=[N+]([O-])c1ccc(S(=O)(=O)Nc2cccc(F)c2)c([N+](=O)[O-])c1` [Compound 9, N-(3-fluorophenyl) 2,4-dinitrophenylsulfonamide], for which the MIC in data set [1] (Table 2b, read-out: MIC) turned out to be 73 µM. In data set [1] (Table 3, read-out: MIC), the MIC was 73 µM. The SO2 source result in data set [3] was “yes”. Moreover, in data set [2], the “SO2 yield, 5 min” value came out at 5 µM; the “K (min−1), rate of sulfite release” value stood at 0.0106 min⁻¹; the “Max SO2 yield” value was 86 µM. The “SO2 yield, 30 min” value in data set [2] (setting [10]) turned out to be 24 µM. For the same compound, the “SO2 yield, 30 min” value in data set [2] (setting [13]) came to 24 µM. Also, the pKaH in data set [4] is listed as 3.38.

Turning to `O=[N+]([O-])c1ccc(S(=O)(=O)Nc2ccc(F)cc2)c([N+](=O)[O-])c1` [Compound 10, N-(4-fluorophenyl) 2,4-dinitrophenylsulfonamide], the MIC in the data set with S. aureus ATCC 29213 (setting [6]) is 16 µg/mL (≈ 46.9 µM); with E. feacalis ATCC 29212 (setting [7]), over 16 µg/mL; in data set [1] (setting [8]) it was 18.3 µM; in data set [1] (setting [9]), 6.25 µg/mL. Further, the “SO2 yield, 5 min” value in data set [2] is 18 µM. In addition, the “SO2 yield, 30 min” value in data set [2] (setting [10]) turned out to be 55 µM.

Regarding `N#Cc1ccc(NS(=O)(=O)c2ccc([N+](=O)[O-])cc2[N+](=O)[O-])cc1` [Compound 11, N-(4-cyanophenyl) 2,4-dinitrophenylsulfonamide], the MIC in the data set on S. aureus ATCC 29213 (setting [6]) was over 16 µg/mL; in the data set on E. feacalis ATCC 29212 (setting [7]) it was over 16 µg/mL; in data set [1] (setting [8]), over 100 µM; in data set [1] (setting [9]), over 50 µg/mL. In addition, the “SO2 yield, 5 min” value in data set [2] is 6 µM. For the same compound, in data set [2], the “SO2 yield in 30 min (%)” value turned out to be 5%. Further, the “SO2 yield, 30 min” value in data set [2] (setting [10]) came to 5 µM.

As to `CCCN(Cc1ccccc1)S(=O)(=O)c1ccc([N+](=O)[O-])cc1[N+](=O)[O-]` [Compound 16, (N-benzyl, N-propyl) 2,4-dinitrophenylsulfonamide], the MIC in data set [1] (Table 2b, read-out: MIC) is listed as 8.25 µM. In addition, the MIC in data set [1] (Table 3, read-out: MIC) came to 8.25 µM. The SO2 source entry in data set [3] was “yes”. In addition, in data set [2], the “SO2 yield, 5 min” value turned out to be 68 µM; the “K (min−1), rate of sulfite release” value stood at 0.1517 min⁻¹; the “Max SO2 yield” value worked out at 96 µM. The “SO2 yield, 30 min” value in data set [2] (setting [10]) came to 96 µM. Besides, the “SO2 yield, 30 min” value in data set [2] (setting [13]) stood at 96 µM. Further, the pKaH in data set [4] is given as 9.68.

With `O=[N+]([O-])c1ccc(S(=O)(=O)N2CCOCC2)c([N+](=O)[O-])c1` [Compound 23, 4-[(2,4-dinitrophenyl)sulfonyl]morpholine], the melting point lay in the range of 144 to 145 °C. In addition, in data set [1] (setting [14]), the MIC is at most 25 µg/mL. This compound also came in with an MIC in data set [1] (setting [11]) of 19.6 µM. The same compound displayed an MIC in data set [1] (setting [12]) of 6.25 µg/mL. Further, in data set [3], the SO2 source result was “yes”. The “SO2 yield, 30 min” value in data set [2] (setting [13]) was found to be 96 µM.

`O=[N+]([O-])c1ccc(S(=O)(=O)N2CCCCC2)c([N+](=O)[O-])c1` [Compound 24, 1-[(2,4-dinitrophenyl)sulfonyl]piperidine] displayed a melting point of 138 °C. Also, the MIC in the data set on S. aureus ATCC 29213 (setting [15]) came to 4 µg/mL (≈ 12.7 µM). Further, the MIC with E. feacalis ATCC 29212 (setting [16]) is over 16 µg/mL. Also, in data set [1] (setting [14]), the MIC is at most 25 µg/mL. In addition, the MIC in data set [1] (setting [11]) came to 2.5 µM. The MIC in data set [1] (setting [12]) was 0.78 µg/mL. Moreover, in data set [3], the SO2 source result is on record as “yes”. Besides, the “SO2 yield, 30 min” value in data set [2] (setting [13]) stood at 91 µM.

Regarding `CN1CCN(S(=O)(=O)c2ccc([N+](=O)[O-])cc2[N+](=O)[O-])CC1` [Compound 25, 1-[(2,4-dinitrophenyl)sulfonyl]-4-methylpiperazine], the MIC in data set [1] (setting [14]) was at most 25 µg/mL; in data set [1] (setting [11]), 38 µM; in data set [1] (setting [12]), 12.5 µg/mL. In addition, the SO2 source entry in data set [3] is given as “yes”. The “SO2 yield, 30 min” value in data set [2] (setting [13]) was found to be 88 µM.

`C=CCN(CC=C)S(=O)(=O)c1ccc([N+](=O)[O-])cc1[N+](=O)[O-]` [Compound 32, N,N-diallyl-2,4-dinitrobenzenesulfonamide]: the results for the MIC in the data set with S. aureus ATCC 29213 (setting [15]) and in the data set on E. feacalis ATCC 29212 (setting [16]) were 8 µg/mL (≈ 24.4 µM) and over 16 µg/mL, respectively.

For `C#CCN(Cc1ccccc1)S(=O)(=O)c1ccc([N+](=O)[O-])cc1[N+](=O)[O-]` [Compound 33, N-benzyl-2,4-dinitro-N-prop-2-yn-1-ylbenzenesulfonamide], the MIC in the data set on S. aureus ATCC 29213 (setting [15]) turned out to be 4 µg/mL (≈ 10.7 µM); with E. feacalis ATCC 29212 (setting [16]), 8 µg/mL (≈ 21.3 µM).

For `O=[N+]([O-])c1ccc(S(=O)(=O)N(CCCN(Cc2ccccc2)S(=O)(=O)c2ccc([N+](=O)[O-])cc2[N+](=O)[O-])Cc2ccccc2)c([N+](=O)[O-])c1` [Compound 34, N,N′-(propane-1,3-diyl)bis(N-benzyl-2,4-dinitrobenzenesulfonamide)], the melting point was 186 to 189 °C. In data set [2], the “% SO2 (30 min)” value amounted to 152%.

`COc1cccc(N(CCCN(Cc2ccccc2)S(=O)(=O)c2ccc([N+](=O)[O-])cc2[N+](=O)[O-])S(=O)(=O)c2ccc([N+](=O)[O-])cc2[N+](=O)[O-])c1` [Compound 36, N-benzyl-N-(3-(N-(3-methoxyphenyl)-2,4-dinitrophenylsulfonamido)propyl)-2,4-dinitrobenzenesulfonamide] registered a melting point of 108 to 110 °C. The “% SO2 (30 min)” value in data set [2] amounted to 184%.

For the compound `COc1ccc(N(CCCN(Cc2ccccc2)S(=O)(=O)c2ccc([N+](=O)[O-])cc2[N+](=O)[O-])S(=O)(=O)c2ccc([N+](=O)[O-])cc2[N+](=O)[O-])cc1` [Compound 37, N-benzyl-N-(3-(N-(4-methoxyphenyl)-2,4-dinitrophenylsulfonamido)propyl)-2,4-dinitrobenzenesulfonamide], the melting point lay within 118 to 120 °C. In addition, the “% SO2 (30 min)” value in data set [2] was 183%.

For `O=[N+]([O-])c1ccc(S(=O)(=O)N(CCCN(c2ccccc2)S(=O)(=O)c2ccc([N+](=O)[O-])cc2[N+](=O)[O-])Cc2ccccc2)c([N+](=O)[O-])c1` [Compound 38, N-benzyl-N-(3-(2,4-dinitro-(N-phenyl)phenylsulfonamido)propyl)-2,4 dinitro benzene sulfonamide], the melting point was in the range of 151 to 153 °C. The “% SO2 (30 min)” value in data set [2] is given as 160%.

Turning to `O=[N+]([O-])c1ccc(S(=O)(=O)N(CCCN(c2ccccc2F)S(=O)(=O)c2ccc([N+](=O)[O-])cc2[N+](=O)[O-])Cc2ccccc2)c([N+](=O)[O-])c1` [Compound 39, N-benzyl-N-(3-(N-(2-fluorophenyl)-2,4-dinitrophenylsulfonamido)propyl)-2,4-dinitrobenzenesulfonamide], the melting point was 151 to 153 °C. Moreover, in data set [2], the “% SO2 (30 min)” value is on record as 141%.
